Here are results for 1 molecule from patent US20190125869A1, “PULSED ELECTROMAGNETIC THERAPY FOR DIRECTING AGENTS TO CANCER CELLS” (MMTC, Inc., priority 2017, published 2019).

Each structure is given as a SMILES string.

This experiment relates to AT2 prostatic tumor of rats. Nature of the experiment: Growth of implanted tumors after intravenous Taxol, with or without pulsed microwaves. In kind it is in vivo, Copenhagen rats. Here is the method:
Treatment times were 30 minutes.
One rat with four implanted tumors, two in each flank, was used. Taxol was injected intravenously at 5 mg/kg. The two lower (right and left) tumors were treated as described above with pulsed microwaves, beginning immediately after the injection. Tumor growth was monitored over 14 days.

For `CC(=O)O[C@H]1C(=O)[C@@]2(C)[C@H]([C@H](OC(=O)c3ccccc3)[C@]3(O)C[C@H](OC(=O)[C@H](O)[C@@H](NC(=O)c4ccccc4)c4ccccc4)C(C)=C1C3(C)C)[C@]1(OC(C)=O)CO[C@@H]1C[C@@H]2O` [Taxol], the tumor size entry runs as follows: (Taxol 5 mg/kg intravenously plus pulsed microwaves (two treated tumors), after 14 days) “barely detectable”; (Taxol 5 mg/kg intravenously plus pulsed microwaves (two treated tumors), at 5 days) “almost disappeared”; (Taxol 5 mg/kg intravenously, non-pulsed control tumors in the same rat, at 5 days) “remained large”. The tumor growth entry (Taxol 5 mg/kg intravenously, non-pulsed control tumors in the same rat, after 14 days) was “continued to grow”. For the same molecule, where the note is “microwave pulsing combined with systemically administered Taxol, pilot study summary”, the remission of tumors entry is “remission of tumors could be obtained”.
